The subject of series [1] is P. falciparum 3D7 trophozoites. In words: Metabolomic fingerprint profiling LC-MS. It is filed as cell-based, Plasmodium falciparum. Also on record: UDP-D-glucose / ADP-D-glucose: unit not given here.
The subject of a further series is P. falciparum. Description: EC50 listed in S2 Table Metabolomics (used to set the concentration tested). Particulars: Plasmodium falciparum; EC50 used for Factor_XEC50 in metabolomics; read-out: EC50_nM. In kind it is cell-based.
Series [2] relates to P. falciparum W2 apicoplast. Conditions: ref [60]; cited from earlier work.
The target of series [3] is T1, 6-Phosphogluconolactonase (Plasmodium falciparum, UniProt Q8IKU0).
T1 construct: […]; His6 with linker ([…]) (N); made in house
T1 sequence (Q8IKU0 1-327): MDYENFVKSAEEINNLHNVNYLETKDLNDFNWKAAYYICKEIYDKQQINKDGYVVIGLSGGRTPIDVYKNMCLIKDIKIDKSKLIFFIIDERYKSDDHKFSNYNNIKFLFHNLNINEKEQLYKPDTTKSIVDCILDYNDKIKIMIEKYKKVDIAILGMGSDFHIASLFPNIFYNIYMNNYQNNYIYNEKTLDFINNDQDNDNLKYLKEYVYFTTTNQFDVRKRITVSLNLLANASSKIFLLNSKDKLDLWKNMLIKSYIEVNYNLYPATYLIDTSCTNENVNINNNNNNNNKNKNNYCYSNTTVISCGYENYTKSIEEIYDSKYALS
Description: Bioaffinity Mass Spectrometry Screening, 6-Phosphogluconolactonase. In kind it is binding. Particulars: compound:protein ~5:1. On the procedure: (§1) Bioaffinity Mass Spectrometry Screening Method
(§2) Recombinant proteins were prepared by the Van Voorhis group according to the same protocol as in [25]. Proteins were buffer-exchanged into a suitable volatile buffer (ammonium acetate or ammonium bicarbonate) for native ESI-MS. Depending on the protein, the buffer and its concentration is chosen to obtain the highest sensitivity in the mass spectrometer. We have chosen ammonium acetate buffer (10mM, pH 7) for these two proteins, dUTPase and 6-Phosphogluconolactonase.
(§3) High-resolution Fourier transform mass spectrometry (FTMS) can identify the molecular weight of the bound ligand. The difference between the mass-to-charge ratio (Δm/z) for the unbound protein and the [protein-bound ligand] complex ions was multiplied by the charge state (z) to directly afford the molecular weight of the bound ligand, using the following equation.
(§4) The BMSS assay was performed on 400 Malaria Box compounds against 25 Plasmodium falciparum proteins, which are critical in malaria cell growth and invasion. Pools of eight Malaria Box compounds (each compound 1 µL, 1 mM in methanol) were incubated with a P. falciparum protein one hour at room temperature. When a non-covalent complex was found, the molecular weight of the binding compound was deducted from the spectrum. On the basis of this information, a binding confirmation on the selected compound was performed. […]

For series [4], the system named is P. falciparum Dd2 apicoplast. Particulars: ref [61]; cited from earlier work.
The subject of a further series is Cryptosporidium parvum. In words: Cryptosporidium parvum high content microscopy in HCT-8.
In the next series the test system is PfCDPK4. Conditions: ref [25]; cited from earlier work.
The target of a further series is T2, dUTPase (Plasmodium falciparum, UniProt Q8II92).
T2 construct: […]; made in house
T2 sequence (Q8II92 whole entry, added parts left off): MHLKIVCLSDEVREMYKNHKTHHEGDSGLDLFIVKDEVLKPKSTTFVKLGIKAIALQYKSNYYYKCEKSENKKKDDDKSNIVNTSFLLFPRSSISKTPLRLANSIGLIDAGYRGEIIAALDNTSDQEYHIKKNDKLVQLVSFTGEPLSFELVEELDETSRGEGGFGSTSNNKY
In words: Bioaffinity Mass Spectrometry Screening, dUTPase. In kind it is binding. Conditions: compound:protein ~5:1. On the procedure:
as §1, §2, §3, §4

The next series deals with Dictyostelium discoideum. Particulars: 7.5 µM; ref [150]; cited from earlier work.
The test system of series [5] is Schistosoma mansoni adult males. Description: S. mansoni adult phenotypic and motility screen Caffrey.
The test system of series [6] is Schistosoma mansoni schistosomula (somules). Description: S. mansoni somules phenotypic screen Caffrey. Particulars: 2.5 µM, 48 h.
The next series concerns S. mansoni adult worms. Also on record: method as in ref [91] (a number printed in a supplementary file, which may have a reference list of its own: not looked up in the article's list). Conditions: ref [91]; read-out: Schistosoma mansoni adult worm EC50 J. Keiser; cited from earlier work.
In series [7] the test system is S. mansoni newly transformed schistosomula (NTS). Also on record: method as in ref [91] (a number printed in a supplementary file, which may have a reference list of its own: not looked up in the article's list). Conditions: ref [91]; read-out: Schistosoma mansoni newly transformed schistosomula EC50 J. Keiser; cited from earlier work.
For a further series, the system named is Mycobacterium marinum. In words: M. marinum antibiotic assay. In kind it is cell-based. Conditions: 10µM. On the procedure: Columns FA-FC: Soldati Group (data presented first in this paper). M. marinum, D. discoideum, and Acathamoeba castellani assays. Each compound of the Malaria Box has been assayed at 10 µM in all three assays. First, the antibiotic activity was assayed directly against Mycobacterium marinum in its culture medium. Second, the toxicity and growth inhibitory effect of the compounds was assayed against the amoeba Dictyostelium discoideum in its culture medium. Finally, the “in cellulo” anti-infective activity of each compound was tested using the intracellular infection system Acanthamoeba castellanii-M. marinum. Values have been normalized using the DMSO carrier. For each assay, values have been normalized to 1.00 using the DMSO carrier, which has no detectable effect on D. discoideum nor M. marinum growth, while rifabutin was used as positive control for the antibiotic assay and the infection assay, as it abolishes M. marinum growth (normalized value under 0.10) in broth at 10 µM and intracellularly at 30 µM [150].

Series [8] deals with Mycobacterium marinum in Acanthamoeba castellanii. Also on record: method as in ref [150] (a number printed in a supplementary file, which may have a reference list of its own: not looked up in the article's list). Particulars: 30 µM; ref [150]; cited from earlier work.
Where [9] appears, read: metabolite level change after treatment.

Regarding `O=C(O)C1Cc2c([nH]c3ccccc23)C(c2ccc(Cl)cc2Cl)N1` (stereo not shown) [MMV008138], in [1] (S2 Table Metabolomics, metabolite Acetyllysine), the Acetyllysine worked out at 0.5387. For the same compound, the N-acetyl-L-ornithine in series [1] (S2 Table Metabolomics, metabolite N-acetyl-L-ornithine) is given as 0.5503. In addition, the N-carbamoyl-L-aspartate in series [1] (S2 Table Metabolomics, metabolite N-carbamoyl-L-aspartate) is reported as 0.144. Moreover, the NADPH in series [1] (S2 Table Metabolomics, metabolite NADPH) was 0.4869. For the same compound, in series [1] (S2 Table Metabolomics, metabolite dAMP), the dAMP is 0.6135. In addition, in series [1] (S2 Table Metabolomics, metabolite dCMP), the dCMP is recorded as 0.1541. The dTDP in [1] (S2 Table Metabolomics, metabolite dTDP) came to 0.7214. Also, in [1] (S2 Table Metabolomics, metabolite dTMP), the dTMP is 0.483. In addition, in [1] (S2 Table Metabolomics, metabolite dTTP), the dTTP stood at 0.2857. Also, in [1] (S2 Table Metabolomics, metabolite dihydroorotate), the dihydroorotate is on record as 0.2096. Also, the orotate in [1] (S2 Table Metabolomics, metabolite orotate) worked out at 0.1204. The DLH in [1] (S2 Table Metabolomics, peptide DLH) was -0.1546. In series [1] (S2 Table Metabolomics, peptide DLS/SDL/SID), the DLS/SDL/SID was found to be 0.007657. For the same compound, the PD in series [1] (S2 Table Metabolomics, peptide PD) turned out to be 0.2545. In series [1] (S2 Table Metabolomics, peptide PEE), this compound displayed a PEE of 0.5615. The compound also gave a PVNF in [1] (S2 Table Metabolomics, peptide PVNF) of -0.063. Besides, in series [1] (metabolite 3-phosphoglycerate, S2 Table Metabolomics), the 3-phosphoglycerate was 0.3297. Further, the ADP-D-glucose in series [1] (metabolite ADP-D-glucose, S2 Table Metabolomics) was 0.3003. The ATP in series [1] (metabolite ATP, S2 Table Metabolomics) is 0.2312. Besides, in [1] (metabolite CDP, S2 Table Metabolomics, change in metabolite level after compound treatment), the CDP is listed as 0.6827. In addition, the D-sedoheptulose-1/7-phosphate in [1] (metabolite D-sedoheptulose-1/7-phosphate, S2 Table Metabolomics, change in metabolite level after compound treatment) is recorded as 0.414. Also, the FAD in series [1] (metabolite FAD, S2 Table Metabolomics) is 0.2533. The GMP in series [1] (metabolite GMP, S2 Table Metabolomics, change in metabolite level after compound treatment) was -0.6458. For the same compound, the “NAD+” value in series [1] (metabolite NAD+, S2 Table Metabolomics) turned out to be 0.09564. Also, the “NADP+” value in series [1] (metabolite NADP+, S2 Table Metabolomics) is 0.2678. In addition, the “Octoluse Bisphosphate” value in series [1] (metabolite Octoluse Bisphosphate, S2 Table Metabolomics, change in metabolite level after compound treatment) is reported as 0.757. In series [1] (metabolite Pyroglutamic acid, S2 Table Metabolomics), the Pyroglutamic acid is given as -0.1569. The UDP-D-glucose in series [1] (metabolite UDP-D-glucose, S2 Table Metabolomics) is given as 0.2273. Besides, in series [1] (metabolite UDP-D-glucuronate, S2 Table Metabolomics), the UDP-D-glucuronate is recorded as 0.2472. The UDP-N-acetyl-glucosamine in series [1] (metabolite UDP-N-acetyl-glucosamine, S2 Table Metabolomics) was determined as 0.2573. In addition, the UDP in series [1] (metabolite UDP, S2 Table Metabolomics, change in metabolite level after compound treatment) was 0.7153. In series [1] (metabolite UMP, S2 Table Metabolomics, change in metabolite level after compound treatment), the UMP is -0.1378. Moreover, the UTP in [1] (metabolite UTP, S2 Table Metabolomics, change in metabolite level after compound treatment) was found to be 0.4566. In series [1] (metabolite a-ketoglutarate, S2 Table Metabolomics), the a-ketoglutarate is given as -0.4582. Also, the citrate/isocitrate in series [1] (metabolite citrate/isocitrate, S2 Table Metabolomics, change in metabolite level after compound treatment) is listed as -0.1476. In series [1] (metabolite cytidine, S2 Table Metabolomics), the cytidine was -0.2541. The dATP in [1] (metabolite dATP, S2 Table Metabolomics) is listed as 0.1704. In series [1] (metabolite dGMP/AMP, S2 Table Metabolomics, change in metabolite level after compound treatment), the dGMP/AMP is recorded as 0.6095. Also, the fumarate in [1] (metabolite fumarate, S2 Table Metabolomics, change in metabolite level after compound treatment) was 0.1788. In [1] (metabolite glucose-1/6-phosphate, S2 Table Metabolomics, change in metabolite level after compound treatment), the glucose-1/6-phosphate was 0.6615. In addition, the glycerate in series [1] (metabolite glycerate, S2 Table Metabolomics, change in metabolite level after compound treatment) is 0.3332. For the same compound, in series [1] (metabolite guanine, S2 Table Metabolomics, change in metabolite level after compound treatment), the guanine is reported as -0.07738. For the same compound, the guanosine in series [1] (metabolite guanosine, S2 Table Metabolomics, change in metabolite level after compound treatment) is -0.4378. Besides, the hypoxanthine in [1] (metabolite hypoxanthine, S2 Table Metabolomics) is recorded as -0.1251. Besides, the indole in [1] (metabolite indole, S2 Table Metabolomics) is -0.05929. For the same compound, the inosine in series [1] (metabolite inosine, S2 Table Metabolomics, change in metabolite level after compound treatment) was -0.03831. Also, in [1] (setting [9]), the 2_3-Diphosphoglyceric acid was 0.5774, the 4-phosphopantothenate is reported as 0.6234, the 6-phospho-D-gluconate was 0.4127 and the FMN is reported as 0.5115. In series [1] (setting [9]), the IMP is recorded as 0.3745, the Pyrophosphate is 0.4065, the Sedoheptoluse bisphosphate stood at 0.7391 and the cyclic-AMP came out at 0.217. For the same compound, in [1] (setting [9]), the glutathione disulfide came to 0.4434, the lactate was -0.4969 and the myo-inositol is on record as 0.6581. Besides, the nicotinate in series [1] (metabolite nicotinate, S2 Table Metabolomics) is reported as -0.1339. The ornithine in [1] (metabolite ornithine, S2 Table Metabolomics) turned out to be 0.07192. Moreover, the phosphoenolpyruvate in series [1] (metabolite phosphoenolpyruvate, S2 Table Metabolomics) worked out at 0.04449. Also, the pyruvate in series [1] (metabolite pyruvate, S2 Table Metabolomics, change in metabolite level after compound treatment) is on record as -0.3198. The ribose-phosphate in series [1] (metabolite ribose-phosphate, S2 Table Metabolomics) stood at 0.3445. Moreover, the sarcosine/alanine in series [1] (metabolite sarcosine/alanine, S2 Table Metabolomics, change in metabolite level after compound treatment) stood at 0.05421. In addition, the sn-glycerol-3-phosphate in series [1] (metabolite sn-glycerol-3-phosphate, S2 Table Metabolomics) is reported as -0.3078. Also, the succinate/methylmalonic acid in series [1] (metabolite succinate/methylmalonic acid, S2 Table Metabolomics, change in metabolite level after compound treatment) worked out at 0.03332. Moreover, in series [1] (metabolite uridine, S2 Table Metabolomics, change in metabolite level after compound treatment), the uridine was -0.07029. In addition, the xanthosine in [1] (metabolite xanthosine, S2 Table Metabolomics, change in metabolite level after compound treatment) is on record as -0.1854. In the series on P. falciparum, the EC50 was found to be 350 nM. Besides, the “rescue by IPP supplementation in words” value in series [2] was “highest level of rescue”. The “binding to 6-Phosphogluconolactonase (confirmation)” value in series [3] was “binding”. For the same compound, the “apicoplast targeting in words” value in [4] is “targets the apicoplast”.

Regarding `O=C(Nc1ccc(Cl)cc1)N1CCN(c2ccc3nncn3n2)CC1` [MMV665917], in the series with Cryptosporidium parvum, the “Selectivity Index C. parvum over mammalian cells” value was above 20.

As a reminder, the IC50 is the concentration that gives 50% inhibition. For the compound `O=c1nc(C=Cc2ccc(Br)cc2)oc2ccccc12` [MMV666599], in the series on PfCDPK4, the IC50 was 700 nM. In addition, the “binding to dUTPase (confirmation)” value on dUTPase was “binding”.

As for `CN1CCC[C@H]1c1cccnc1` [Nicotine], the “D. discoideum growth, positive control” value in the series with Dictyostelium discoideum is “abolishes its growth”.

Consider `O=C(C1CCCCC1)N1CC(=O)N2CCc3ccccc3C2C1` (stereo not shown) [Praziquantel], for which the “S. mansoni adult males 48hr motility assay” value in series [5] (48 h, 5µM) is on record as “zero”. In series [5] (48hr at 5 µM), the “S. mansoni adult males visual tox scale, 0 = none, 4=most damaged” value is given as 4. For the same compound, in [6], the somule severity score is 4. Also, the EC50 in the series with S. mansoni adult worms was 200 nM; in [7], 2200 nM.

With `CO[C@H]1/C=C/O[C@@]2(C)Oc3c(C)c(O)c4c(c3C2=O)C2=NC3(CCN(CC(C)C)CC3)NC2=C(NC(=O)/C(C)=C\C=C\[C@H](C)[C@H](O)[C@@H](C)[C@@H](O)[C@@H](C)[C@H](OC(C)=O)[C@@H]1C)C4=O` [rifabutin, reference compound], the “Mycobacterium marinum relative growth DMSO=1 Antibiotic Assay” value in the series with Mycobacterium marinum was “under 0.10”. The “M. marinum intracellular growth, normalized value” in [8] is “under 0.10”.

(Values after article PMC4965013, “Open Source Drug Discovery with the Malaria Box Compound Collection for Neglected Diseases and Beyond” (PLoS Pathogens, 2016).)
